Measurements reported in patent US20220289768A1, “HETEROCYCLIC COMPOUNDS AS STING MODULATORS” (BEIGENE, LTD., priority 2019, published 2022).

Tests used:
STING in THP1-Dual Cells = test: STING cellular assay in THP1-Dual cells (Lucia luciferase IRF reporter); type: cell-based; conditions: Homo sapiens, 24 h incubation, QUANTI-Luc readout, 1 nM-10 μM
Description: (§1) STING Cellular Assay in THP1-Dual™ Cells
(§2) THP1-Dual™ cells were derived from the human THP-1 monocyte cell line by stable integration of two inducible reporter constructs. THP1-Dual™ cells feature the Lucia luciferase gene, a new secreted luciferase reporter gene, under the control of an ISG54 (interferon-stimulated gene) minimal promoter in conjunction with five interferon (IFN)-stimulated response elements. THP1-Dual™ cells also express a secreted embryonic alkaline phosphatase (SEAP) reporter gene driven by an IFN-β minimal promoter fused to five copies of the NF-κB consensus transcriptional response element and three copies of the c-Rel binding site. As a result, THP1-Dual™ cells allow the simultaneous study of the NF-κB pathway, by monitoring the activity of SEAP, and the interferon regulatory factor (IRF) pathway, by assessing the activity of Lucia luciferase. Both reporter proteins are readily measurable in the cell culture supernatant when using QUANTI-Blue™, a SEAP detection reagent, and QUANTI-Luc™, a Lucia luciferase detection reagent.
(§3) Distinct variants of human STING (hSTING) that affect CDN recognition and signal transduction have been identified: • R232 (R71-G230-R232-R293): the most prevalent in the human population (˜60%). Referred as the “wild-type” or 232R-RGR allele2. • HAQ (H71-A230-R232-Q293): contains three non-synonymous single nucleotide substitutions; R71H, G230A and R293Q. This allele, found in ˜20% of the population, is less sensitive to CDNs than the “wild-type” allele2.
(§4) Growth Medium: RPMI 1640, 2 mM L-glutamine, 25 mM HEPES, 10% heat-inactivated fetal bovine serum (30 min at 56° C.), 100 μg/mL Normocin™, Pen-Strep (100 U/mL-100 μg/mL)
(§5) 1. After cells have recovered (after at least one passage), maintain and subculture the cells in growth medium. (To maintain selection pressure, add 10 μg/mL of blasticidin and 100 μg/mL of Zeocin™ to the growth medium every other passage.) 2. Pass the cells every 3 days by inoculating 7×10^5 cells/ml.
(§6) Experimental Procedure • 1. Add 180 μL of cell suspension (˜100,000 cells) per well of a flat-bottom 96-well plate (costar 3599). • 2. Then compounds were added with serial dilutions over 10 points with a 1 nM-10 μM final concentration range in 0.10% DMSO/growth medium. • 3. Incubate the plate for 24 h at 37° C., 5% CO2. • 4. Set the BMG PHERAstar FSX instrument with the following parameters: 50 μL of injection, end-point measurement with a 4 second start time and 0.1 second reading time. • 5. Pipet 10 μL of THP1-Dual™ cell culture medium per well into a 96-well white opaque plate (Corning 3903). • 6. Add 50 μL of QUANTI-Luc assay solution to each well and gently tap the plate several times to mix. Proceed immediately with the measurement.

[1] = system: hSTING-R232 in THP1-Dual KI-hSTING-R232 Cells; test: STING cellular assay in THP1-Dual KI-hSTING-R232 cells (Lucia luciferase IRF reporter); type: cell-based; conditions: Homo sapiens, 24 h incubation, QUANTI-Luc readout, 1 nM-10 μM
Description: as §1, §2, §3, §4, §5, §6

SMILES | EC50 (STING in THP1-Dual Cells) [nM] | EC50 [1] [nM]
CCn1nc(C)cc1-c1nc(Cl)c2c3cc(C(N)=O)cc(OC)c3n(C/C=C/Cn3c4nc(-c5cc(C)nn5CC)nc(Cl)c4c4cc(C#N)cc(OCCCN5CCOCC5)c43)c2n1 [Example 1, (E)-4-chloro-9-(4-(4-chloro-6-cyano-2-(1-ethyl-3-methyl-1H-pyrazol-5-yl)-8-(3-morpholinopropoxy)-9H-pyrimido[4,5-b]indol-9-yl)but-2-en-1-yl)-2-(1-ethyl-3-methyl-1H-pyrazol-5-yl)-8-methoxy-9H-pyrimido[4,5-b]indole-6-carboxamide] | > 10000 | > 10000
CCn1nc(C)cc1-c1nc(O)c2c3cc(C(N)=O)cc(OC)c3n(C/C=C/Cn3c4nc(-c5cc(C)nn5CC)nc(O)c4c4cc(C(N)=O)cc(OCCCN5CCOCC5)c43)c2n1 [Example 2, (E)-9-(4-(6-carbamoyl-2-(1-ethyl-3-methyl-1H-pyrazol-5-yl)-4-hydroxy-8-(3-morpholinopropoxy)-9H-pyrimido[4,5-b]indol-9-yl)but-2-en-1-yl)-2-(1-ethyl-3-methyl-1H-pyrazol-5-yl)-4-hydroxy-8-methoxy-9H-pyrimido[4,5-b]indole-6-carboxamide; trifluoroacetic acid] | > 10000 | 3230
CCn1nc(C)cc1-c1nc(Cl)c2c3cc(C(N)=O)cc(OC)c3n(C/C=C/Cn3c4nc(-c5cc(C)nn5CC)nc(Cl)c4c4cc(C(N)=O)cc(OCCCN5CCOCC5)c43)c2n1 [Example 3, (E)-9-(4-(6-carbamoyl-4-chloro-2-(1-ethyl-3-methyl-1H-pyrazol-5-yl)-8-(3-morpholinopropoxy)-9H-pyrimido[4,5-b]indol-9-yl)but-2-en-1-yl)-4-chloro-2-(1-ethyl-3-methyl-1H-pyrazol-5-yl)-8-methoxy-9H-pyrimido[4,5-b]indole-6-carboxamide; trifluoroacetic acid] | 182 | 3.7
CCn1nc(C)cc1-c1ncc2c3cc(C(N)=O)cc(OC)c3n(C/C=C/Cn3c4nc(-c5cc(C)nn5CC)ncc4c4cc(C(N)=O)cc(OCCCN5CCOCC5)c43)c2n1 [Example 4, (E)-9-(4-(6-carbamoyl-2-(1-ethyl-3-methyl-1H-pyrazol-5-yl)-8-(3-morpholinopropoxy)-9H-pyrimido[4,5-b]indol-9-yl)but-2-en-1-yl)-2-(1-ethyl-3-methyl-1H-pyrazol-5-yl)-8-methoxy-9H-pyrimido[4,5-b]indole-6-carboxamide; formic acid] | 3.5 | 1.5
